The source of these data is patent US20120202287A1, “Stem Cell Culture Methods” (priority 2009, published 2012).

The assay relates to SA121 hESCs. The experiment in a line: General (monolayer) differentiation on matrigel in defined media, qRT-PCR of stem cell and differentiation markers after 14 days. Conditions: for NO EHNA EFFECT / Full EHNA effect / PARTIAL EHNA EFFECT (PAX6): 10 uM; for NO EHNA EFFECT: neither NANOG nor PAX6 criterion met; for Full EHNA effect: NANOG at least 50% of EHNA level and PAX6 50% or less of untreated control; for PARTIAL EHNA EFFECT (PAX6): only PAX6 50% or less of untreated control. More on the design: key to NO EHNA EFFECT: X: NO EHNA EFFECT; key to Full EHNA effect: those which maintained at least 50% of the level of NANOG-expression in comparison to EHNA and those that inhibited the expression of PAX6 to 50% or less than the value untreated controls were considered to have an EHNA-like effect. In kind it is cell-based, human. The method, then: In order to ascertain the efficacy of the compounds of the present invention, each compound was tested to determine whether it can maintain the stem cell marker NANOG and/or block the differentiation marker PAX6 in the face of differentiating conditions in a manner similar to EHNA. Cells enzymatically passaged onto matrigel-coated dishes and grown for 2 weeks in defined media with or without (control) compound addition were analysed by qRT-PCR to determine the level of NANOG and PAX6 expression.
For general differentiation experiments cells were passaged with trypsin onto matrigel coated twelve-well dishes in the fully supportive media (see above). The media was then changed to defined media 24 h later and any experimental component was first added at this point. The media and experimental supplement were changed daily.
Cells were routinely harvested for qRT-PCR analysis 14 days after the first addition of the experimental compound.
Total RNA was extracted using QIAGEN RNeasy kits (Qiagen Inc, Valencia, Calif., http://www.qiagen.com) and DNaseI treatment was performed using Turbo DNA-Free (Ambion). The absence of genomic DNA was confirmed by quantitative PCR (qPCR) (see below) using glyceraldehyde-3-phosphate dehydrogenase (GAPDH) Taqman primers and probe (MWG). cDNA was synthesized with 2 μg total RNA in 20 μl using Superscript II according to manufacturers' instructions ((Carlsbad, Calif., http://www.Invitrogen.com)). For qPCR, cDNAs were diluted 1 in 60 and 5 μl used per sample in a 15 μl total reaction volume. Platinum pPCR supermix UDG with Rox (Carlsbad, Calif., http://www.Invitrogen.com) was used according to the manufacturer's instructions using an Applied Biosystems 7300 real time PCR system (Applied Biosystems, Warrington, UK, http://europe.appliedbiosystems.com). Each reaction contained 0.6 μM of each primer and Taqman probe (MWG). Biological and technical replicates were each performed in triplicate for each sample, standardised to the GAPDH housekeeping gene and relative expression values were calculated using the 7300 system SDS software (Applied Biosystems, Warrington, UK, http://europe.appliedbiosystems.com).
Cells were enzymatically passaged onto matrigel-coated dishes and grown for 2 weeks in defined media. After 14 days, qRT-PCR was utilised to analyse the expression of a variety of markers of pluripotency and differentiation. In the graphs in FIG. 9 the value 1 was set to the expression level of the gene in undifferentiated SA121 hESCs.
Cells were enzymatically passaged onto matrigel-coated dishes and grown for 2 weeks in defined media (1× confluent T25 tissue culture flask was passaged to 2×12 well dishes) with or without (control) compound addition. All compounds were added at 10 uM and each was performed in triplicate. Media and compounds were changed every 48 hours. After 14 days RNA was isolated and qRT-PCR was utilised to analyse the expression of NANOG and PAX6. The results are illustrated in FIGS. 13 to 17.
In the graphs in FIGS. 13, 14 15, 16 and 17 the value 1 was set relative to the expression level of the gene in the control (no compound) samples. […] This experiment allowed the effect of the EHNA-related compounds to be measured directly in comparison to EHNA. […] Those which had on effect, to these levels, on either PAX6 or NANOG were considered to have a partial-EHNA effect.

With `CCCCCCC(C(C)O)n1nnc2cnccc21` (racemic) [HWC54, (rac)-erythro-3-(1H-[1,2,3]triazolo[4,5-c]pyridin-1-yl)nonan-2-ol], the “NO EHNA EFFECT” value (14 days, qRT-PCR) is recorded as “X”.
With `CCCCCCC(CC)n1cnc2c(N)ncnc21` (racemic) [HWC57, (rac)-9-(Nonan-3-yl)-9H-purin-6-amine], the “Full EHNA effect” value (14 days, qRT-PCR) is “X”.
As for `CCCCCC(CC)n1cnc2c(N)ncnc21` (racemic) [HWC62, (rac)-9-(octan-3-yl)-9H-purin-6-amine], the “Full EHNA effect” value (14 days, qRT-PCR) is reported as “X”.
Consider `CCCCCCCC(CC)n1cnc2c(N)ncnc21` (racemic) [HWC63, (rac)-9-(decan-3-yl)-9H-purin-6-amine], for which, under “14 days, qRT-PCR”, the “PARTIAL EHNA EFFECT (PAX6)” value was “X (Those which had on effect, to these levels, on either PAX6 or NANOG were considered to have a partial-EHNA effect)”.
For the molecule `COc1ccc(Cc2nn3c([C@@H](CCCc4ccccc4)[C@@H](C)O)nc(C)c3c(=O)[nH]2)cc1OC` [BAY-60-7550, reference compound], the “PAX6 expression in differentiating conditions” value (qRT-PCR, 14 days) is “nor did they inhibit PAX6 induction”. Besides, the “stem cell marker expression (NANOG, ZFP42, POU5F1) in differentiating conditions” value (qRT-PCR, 14 days, FIG. 9a) is on record as “Neither BAY nor IBMX maintained stem cell marker expression”.
With `CCCCCCCCCCn1cc2c(N)ncnc2n1.Cl` [HWC6, 2-decyl-2H-pyrazolo[3,4-d]pyrimidin-4-amine hydrochloride], the “Full EHNA effect” value (14 days, qRT-PCR) was “X”. Moreover, under “FIG. 10”, the “prevention of differentiation of hESCs” value was “can prevent differentiation of hESCs”. For the same molecule, the “PAX6 expression in differentiating conditions” value (qRT-PCR, 14 days) is “inhibiting PAX6 expression”. The “NANOG expression in differentiating conditions” value (qRT-PCR, 14 days, relative to untreated control) is given as “capable of maintaining NANOG”.
As for `CCCCCC[C@@H]([C@@H](C)O)n1cnc(C(=O)NC)c1` [HWC7, erythro-1-(2-hydroxynonan-3-yl)-N-methyl-1H-imidazole-4-carboxamide], the “NO EHNA EFFECT” value (14 days, qRT-PCR) is listed as “X”.
In the case of `CCCCCC[C@@H]([C@@H](C)O)n1cnc2cnccc21` [HWC8, erythro-3-(1H-imidazo[4,5-c]pyridin-1-yl)nonan-2-ol], for the setting “14 days, qRT-PCR”, the “PARTIAL EHNA EFFECT (PAX6)” value is given as “X (Those which had on effect, to these levels, on either PAX6 or NANOG were considered to have a partial-EHNA effect)”.
Turning to `CCCCCC[C@@H]([C@@H](C)O)n1cnc2c(N)nccc21.Cl` [HWC9, erythro-3-(4-Amino-1H-imidazo[4,5-c]pyridin-1-yl)nonan-2-ol hydrochloride], the “PARTIAL EHNA EFFECT (PAX6)” value (14 days, qRT-PCR) is recorded as “X (Those which had on effect, to these levels, on either PAX6 or NANOG were considered to have a partial-EHNA effect)”.
Turning to `CCCCCCC(C(C)O)n1cnc2c(Cl)ncnc21` (stereo not drawn) [HWC10, erythro-3-(6-Chloro-9H-purin-9-yl)nonan-2-ol], for the setting “14 days, qRT-PCR”, the “PARTIAL EHNA EFFECT (PAX6)” value was “X (Those which had on effect, to these levels, on either PAX6 or NANOG were considered to have a partial-EHNA effect)”.
Take `CCCCCC[C@@H]([C@@H](C)O)n1cnc2cncnc21` [HWC12, erythro-3-(9H-purin-9-yl)nonan-2-ol]: where the note is “14 days, qRT-PCR”, the “PARTIAL EHNA EFFECT (PAX6)” value was “X (Those which had on effect, to these levels, on either PAX6 or NANOG were considered to have a partial-EHNA effect)”.
Same read-out and setting: the same measure for `CCCCCCC(C(C)O)n1cnc2c(S)ncnc21.Cl` (stereo not drawn) [HWC13, erythro-3-(6-mercapto-9H-purin-9-yl)nonan-2-ol hydrochloride]: “X (Those which had on effect, to these levels, on either PAX6 or NANOG were considered to have a partial-EHNA effect)”.
Consider `CCCCCCC(C(C)O)n1cnc2c(O)ncnc21.Cl` (stereo not drawn) [HWC14, erythro-9-(2-hydroxynonan-3-yl)-9H-purin-6-ol hydrochloride], for which the “NO EHNA EFFECT” value (14 days, qRT-PCR) is “X”.
Regarding `CCCCCC[C@@H]([C@@H](C)O)n1cnc2c(OC)ncnc21.Cl` [HWC15, erythro-3-(6-methoxy-9H-purin-9-yl)nonan-2-ol hydrochloride], the “NO EHNA EFFECT” value (14 days, qRT-PCR) is listed as “X”.
`CCCCCCC(C(C)O)n1cnc2c(NC)ncnc21` (stereo not drawn) [HWC16, erythro-3-[6-(methylamino)-9H-purin-9-yl]nonan-2-ol]: for the setting “14 days, qRT-PCR”, the “PARTIAL EHNA EFFECT (PAX6)” value was “X (Those which had on effect, to these levels, on either PAX6 or NANOG were considered to have a partial-EHNA effect)”.
Turning to `CCCCCC[C@@H]([C@@H](C)O)n1cnc2c(N(C)C)ncnc21.Cl` [HWC17, erythro-3-[6-(dimethylamino)-9H-purin-9-yl]nonan-2-ol hydrochloride], the “PARTIAL EHNA EFFECT (PAX6)” value (14 days, qRT-PCR) is listed as “X (Those which had on effect, to these levels, on either PAX6 or NANOG were considered to have a partial-EHNA effect)”.
For `CCCCCCC(C(C)O)n1c(C)nc2c(N)ncnc21.Cl` (stereo not drawn) [HWC24, erythro-3-(6-Amino-8-methyl-9H-purin-9-yl)nonan-2-ol hydrochloride], the “PARTIAL EHNA EFFECT (PAX6)” value (14 days, qRT-PCR) was “X (Those which had on effect, to these levels, on either PAX6 or NANOG were considered to have a partial-EHNA effect)”.
`CCCCCCC(C(C)O)n1cnc2c(SC)ncnc21` (stereo not drawn) [HWC25, erythro-3-[6-(methylthio)-9H-purin-9-yl]nonan-2-ol]: for the setting “14 days, qRT-PCR”, the “Full EHNA effect” value is on record as “X”.
`CCCCCC[C@@H]([C@@H](C)O)n1nnc2c(N)ncnc21` [HWC26, erythro-3-(7-amino-3H-[1,2,3]triazolo[4,5-d]pyrimidin-3-yl)nonan-2-ol]: the “PARTIAL EHNA EFFECT (PAX6)” value (14 days, qRT-PCR) is on record as “X (Those which had on effect, to these levels, on either PAX6 or NANOG were considered to have a partial-EHNA effect)”.
With `CCCCCCC(C(C)O)n1cnc2c(NN)ncnc21` (stereo not drawn) [HWC27, erythro-3-(6-hydrazinyl-9H-purin-9-yl)nonan-2-ol], the “PARTIAL EHNA EFFECT (PAX6)” value (14 days, qRT-PCR) is “X (Those which had on effect, to these levels, on either PAX6 or NANOG were considered to have a partial-EHNA effect)”.
For `Nc1ncnc2c1cnn2CCN1CCOCC1` [HWC28, 1-(2-morpholinoethyl)-1H-pyrazolo[3,4-d]pyrimidin-4-amine], the “PARTIAL EHNA EFFECT (PAX6)” value (14 days, qRT-PCR) is “X (Those which had on effect, to these levels, on either PAX6 or NANOG were considered to have a partial-EHNA effect)”.
Same read-out and setting: next, `Nc1ncnc2nn(CCN3CCOCC3)cc12` [HWC29, 2-(2-morpholinoethyl)-2H-pyrazolo[3,4-d]pyrimidin-4-amine]: “X (Those which had on effect, to these levels, on either PAX6 or NANOG were considered to have a partial-EHNA effect)”.
For the molecule `CCCCCCCCCn1cc2c(N)ncnc2n1.Cl` [HWC30, 2-nonyl-2H-pyrazolo[3,4-d]pyrimidin-4-amine hydrochloride], under “14 days, qRT-PCR”, the “Full EHNA effect” value is reported as “X”.
For `CCCCCCCCCn1ncc2c(N)ncnc21.Cl` [HWC31, 1-nonyl-1H-pyrazolo[3,4-d]pyrimidin-4-amine hydrochloride], the “Full EHNA effect” value (14 days, qRT-PCR) is listed as “X”.
Regarding `CCCCCCCCCCCn1ncc2c(N)ncnc21.Cl` [HWC33, 1-undecyl-1H-pyrazolo[3,4-d]pyrimidin-4-amine hydrochloride], the “Full EHNA effect” value (14 days, qRT-PCR) was “X”.
As to `COCCOCCn1ncc2c(N)ncnc21` [HWC34, 1-[2-(2-methoxyethoxy)ethyl]-1H-pyrazolo[3,4-d]pyrimidin-4-amine], the “PARTIAL EHNA EFFECT (PAX6)” value (14 days, qRT-PCR) is reported as “X (Those which had on effect, to these levels, on either PAX6 or NANOG were considered to have a partial-EHNA effect)”.
As for `COCCOCCn1cc2c(N)ncnc2n1` [HWC35, 2-[2-(2-methoxyethoxy)ethyl]-2H-pyrazolo[3,4-d]pyrimidin-4-amine], the “PARTIAL EHNA EFFECT (PAX6)” value (14 days, qRT-PCR) is on record as “X (Those which had on effect, to these levels, on either PAX6 or NANOG were considered to have a partial-EHNA effect)”.
As to `CCCCCC[C@@H]([C@@H](C)O)n1cnc(C(N)=O)c1` [HWC36, erythro-1-(2-hydroxynonan-3-yl)-1H-imidazole-4-carboxamide], the “NO EHNA EFFECT” value (14 days, qRT-PCR) is listed as “X”.
